In patent US7632972B2, “Compounds and methods for treatment of cancer and modulation of programmed cell death for melanoma and other cancer cells” (The Board of Trustees of the University of Illionis, priority 2003, dated 2009):

System: U-937 cells
Assay: High-throughput cell death assay on library members (MTS/PMS)
Format: cell-based, human
Conditions: library members at 100 μM, 24 hours
Method: A three-tiered system was devised to identify compounds that selectively induce apoptosis in cancer cells. First, all compounds were screened at 100 μM in a high-throughput manner for their ability to induce death in two cancer cell lines, HL-60 (leukemia) and U-937 (lymphoma).
Test compounds were transferred into the wells using a 96-pin transfer apparatus (V & P Scientific, San Diego Calif.) that transfers 0.2 μL of compound. The compounds were made up as 50 mM stock solutions in 100% EtOH, so one transfer gave a final concentration of 100 μM. Controls were performed in which only EtOH (containing no compound) was pin-transferred into wells containing cells. The cells were incubated with the compounds for 24 hours, and then cell death was quantitated.

| Structure (SMILES) | Induction of death in U-937 cells (percentages of cell death) |
| --- | --- |
| COc1cccc(/C=C/C(=O)NCCc2ccccc2)c1 [Compound 16-H] | 57% |
| COc1ccc([C@H](O)CNC(=O)/C=C/c2ccccc2)cc1 [Compound 14-A] | 28% |
| O=C(/C=C/c1ccccc1)NCCc1ccc(O)cc1 [Compound 17-A] | 48% |
| COc1cc(/C=C/C(=O)NC[C@@H](OC)c2ccc(O)cc2)cc(OC)c1OC [Compound 9-F] | 13% |
| COc1ccc(/C=C/C(=O)NC[C@@H](OC)c2ccc(O)cc2)cc1O [Compound 9-E] | 41% |
| COc1cc(/C=C/C(=O)NCCc2ccc(O)cc2)ccc1O [Compound 17-D] | 58% |
| COc1ccc(CCNC(=O)/C=C/c2ccc(O)c(O)c2)cc1 [Compound 18-C] | 26% |
| COc1ccc([C@H](O)CNC(=O)/C=C/c2cc(OC)c(O)c(OC)c2)cc1 [Compound 14-G] | 48% |
| O=C(/C=C/c1ccc(O)cc1)NCCc1ccccc1 [Compound 16-B] | 66% |
| O=C(/C=C/c1ccccc1)NC[C@@H](O)c1ccc(O)cc1 [Compound 13-A] | 43% |
| O=C(/C=C/c1ccc(O)c(O)c1)NC[C@@H](O)c1ccc(O)cc1 [Compound 13-C] | −36% |
| COc1ccc(CCNC(=O)/C=C/c2cccc(OC)c2)cc1 [Compound 18-H] | 56% |
| COc1ccc([C@@H](CNC(=O)/C=C/c2cccc(OC)c2)OC)cc1 [Compound 10-H] | 72% |
| COc1cc(/C=C/C(=O)NCCc2ccc(O)cc2)cc(OC)c1O [Compound 17-G] | 26% |
| CO[C@@H](CNC(=O)/C=C/c1ccccc1)c1ccc(O)cc1 [Compound 11-A] | 26% |
| COc1ccc([C@@H](CNC(=O)/C=C/c2cc(OC)c(OC)c(OC)c2)OC)cc1 [Compound 10-F] | 45% |
| COc1cccc(/C=C/C(=O)NC[C@@H](O)c2ccc(O)cc2)c1 [Compound 13-H] | 43% |
| COc1cc(/C=C/C(=O)NC[C@H](OC)c2ccc(O)cc2)cc(OC)c1O [Compound 11-G] | −11% |
| COc1cc(/C=C/C(=O)NCCc2ccccc2)ccc1O [Compound 16-D] | 39% |
| COc1cccc(/C=C/C(=O)NC[C@H](O)c2ccc(O)cc2)c1 [Compound 15-H] | 24% |
| O=C(/C=C/c1ccc(O)c(O)c1)NC[C@H](O)c1ccc(O)cc1 [Compound 15-C] | −29% |
| COc1ccc(CCNC(=O)/C=C/c2cc(OC)c(O)c(OC)c2)cc1 [Compound 18-G] | 35% |
| COc1ccc([C@@H](CNC(=O)/C=C/c2ccc(O)c(O)c2)OC)cc1 [Compound 10-C] | −8% |
| COc1ccc([C@H](O)CNC(=O)/C=C/c2ccc(OC)c(O)c2)cc1 [Compound 14-E] | 35% |
| O=C(/C=C/c1ccc(O)c(O)c1)NCCc1ccc(O)cc1 [Compound 17-C] | 15% |
| COc1cccc(/C=C/C(=O)NC[C@@H](O)c2ccccc2)c1 [Compound 12-H] | 51% |
| COc1ccc([C@H](O)CNC(=O)/C=C/c2cc(OC)c(OC)c(OC)c2)cc1 [Compound 14-F] | 26% |

| Structure (SMILES) | Induction of death in U-937 cells (percentages of cell death) |
| --- | --- |
| COc1cc(/C=C/C(=O)NCCc2ccccc2)cc(OC)c1O [Compound 16-G] | 20% |
| COc1ccc([C@@H](CNC(=O)/C=C/c2cc(OC)c(O)c(OC)c2)OC)cc1 [Compound 10-G] | 16% |
| COc1cc(/C=C/C(=O)NC[C@H](O)c2ccc(O)cc2)cc(OC)c1OC [Compound 15-F] | 12% |
| CO[C@H](CNC(=O)/C=C/c1ccc(O)cc1)c1ccccc1 [Compound 8-B] | 34% |
| CO[C@H](CNC(=O)/C=C/c1ccc(O)c(O)c1)c1ccccc1 [Compound 8-C] | −5% |
| COc1cc(/C=C/C(=O)NC[C@@H](O)c2ccccc2)cc(OC)c1O [Compound 12-G] | 41% |
| CO[C@H](CNC(=O)/C=C/c1ccccc1)c1ccc(O)cc1 [Compound 9-A] | 24% |
| COc1ccc(/C=C/C(=O)NC[C@H](OC)c2ccc(O)cc2)cc1O [Compound 11-E] | 41% |
| COc1ccc([C@@H](CNC(=O)/C=C/c2ccc(OC)c(O)c2)OC)cc1 [Compound 10-E] | 55% |
| COc1ccc(/C=C/C(=O)NC[C@@H](OC)c2ccccc2)cc1O [Compound 8-E] | 56% |
| CO[C@H](CNC(=O)/C=C/c1ccccc1)c1ccccc1 [Compound 8-A] | 70% |
| COc1cc(/C=C/C(=O)NC[C@H](OC)c2ccc(O)cc2)cc(OC)c1OC [Compound 11-F] | 27% |
| COc1cccc(/C=C/C(=O)NCCc2ccc(O)cc2)c1 [Compound 17-H] | 41% |
| COc1cc(/C=C/C(=O)NC[C@@H](O)c2ccc(O)cc2)cc(OC)c1O [Compound 13-G] | 16% |
| COc1ccc([C@@H](CNC(=O)/C=C/c2ccc(O)cc2)OC)cc1 [Compound 10-B] | 60% |
| COc1ccc([C@H](O)CNC(=O)/C=C/c2ccc(O)cc2)cc1 [Compound 14-B] | 27% |
| COc1cc(/C=C/C(=O)NC[C@H](OC)c2ccc(O)cc2)ccc1O [Compound 11-D] | 34% |
| COc1ccc(/C=C/C(=O)NC[C@@H](O)c2ccc(O)cc2)cc1O [Compound 13-E] | 43% |
| COc1ccc(CCNC(=O)/C=C/c2cc(OC)c(OC)c(OC)c2)cc1 [Compound 18-F] | 40% |
| COc1cc(/C=C/C(=O)NC[C@@H](OC)c2ccc(O)cc2)cc(OC)c1O [Compound 9-G] | −7% |
| COc1cc(/C=C/C(=O)NC[C@@H](OC)c2ccccc2)cc(OC)c1O [Compound 8-G] | −3% |
| COc1ccc([C@H](O)CNC(=O)/C=C/c2ccc(O)c(OC)c2)cc1 [Compound 14-D] | 59% |
| O=C(/C=C/c1ccc(O)cc1)NC[C@@H](O)c1ccc(O)cc1 [Compound 13-B] | 49% |
| COc1cccc(/C=C/C(=O)NC[C@@H](OC)c2ccccc2)c1 [Compound 8-H] | 60% |
| COc1ccc([C@@H](CNC(=O)/C=C/c2ccc(O)c(OC)c2)OC)cc1 [Compound 10-D] | 31% |
| CO[C@H](CNC(=O)/C=C/c1ccc(O)c(O)c1)c1ccc(O)cc1 [Compound 9-C] | −12% |
